Source: US10499642B2, “Isoxazoline-substituted benzamides and analogues as insecticides” (SYNGENTA PARTICIPATIONS AG, priority 2015, dated 2019)
Where two headings read alike, the source gives them in different places.

Key:
Type in all cases: in vivo
Tetranychus urticae = Tetranychus urticae (two-spotted spider mite) bean leaf disc test; details: foliar, 192 h
Method: Tetranychus urticae (Two-Spotted Spider Mite):
Bean leaf discs on agar in 24-well microtiter plates were sprayed with aqueous test solutions prepared from 10′000 ppm DMSO stock solutions. After drying the leaf discs were infested with a mite population of mixed ages. The samples were assessed for mortality on mixed population (mobile stages) 8 days after infestation.

Myzus persicae = Myzus persicae (green peach aphid) sunflower leaf disc test; details: foliar, 144 h
Method: Myzus persicae (Green Peach Aphid):
Sunflower leaf discs were placed on agar in a 24-well microtiter plate and sprayed with test solutions at an application rate of 200 ppm. After drying, the leaf discs were infested with an aphid population of mixed ages. After an incubation period of 6 days after treatment, samples were checked for mortality. The following compounds gave at least 80% mortality of Myzus persicae: […]

Plutella xylostella = Plutella xylostella (diamond back moth) artificial diet test; details: 120 h, read-out: effect in at least one of the two categories (mortality or growth inhibition)
Procedure, shortened: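 At a 200 ppm rate, test solutions were applied to artificial diet and allowed to dry before second-instar larvae were added. Five days later, larval mortality and growth inhibition were rated against untreated samples.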

Spodoptera littoralis = Spodoptera littoralis (Egyptian cotton leaf worm) cotton leaf disc test; details: foliar, 72 h, read-out: control (at least one of mortality, anti-feedant effect, and growth inhibition)
Procedure, shortened: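 Five first-instar larvae per disc were placed on dried, sprayed cotton leaf discs held on agar. Test solutions were aqueous, made from 10′000 ppm DMSO stocks. At day 3, control was counted when mortality, feeding deterrence or growth inhibition exceeded the untreated discs.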

Diabrotica Balteata = assay: Diabrotica balteata (corn root worm) maize sprout test; details: 96 h, read-out: effect in at least one of the two categories (mortality or growth inhibition)
Procedure, shortened: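 Scoring covered both mortality and growth inhibition relative to untreated controls, 4 days post-infestation. Test solutions at 200 ppm, diluted in water from 10′000 ppm DMSO stocks, were sprayed onto agar-held maize sprouts, which after drying received 6 to 10 L2 larvae each well.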

Thrips tabaci = Thrips tabaci (onion thrips) sunflower leaf disc test; details: foliar, 144 h
Method: Thrips tabaci (Onion Thrips):
Sunflower leaf discs were placed on agar in 24-well microtiter plates and sprayed with aqueous test solutions prepared from 10′000 ppm DMSO stock solutions. After drying the leaf discs were infested with a thrips population of mixed ages. The samples were assessed for mortality 6 days after infestation.

C#CCOC1=NOC(NC(=O)c2ccc(C3=NO[C@@](c4cc(Cl)c(F)c(Cl)c4)(C(F)(F)F)C3)cc2C)C1 (stereo partly drawn) [Compound A074]
≥ 80%: mortality at 200 ppm (Tetranychus urticae) | mortality at 200 ppm (Myzus persicae) | percent effect (mortality or growth inhibition) at 200 ppm (Plutella xylostella) | percent control (mortality, anti-feedant effect or growth inhibition) at 200 ppm (Spodoptera littoralis) | percent effect (mortality or growth inhibition) at 200 ppm (Diabrotica Balteata) | mortality at 200 ppm (Thrips tabaci)

Cc1cc(C2=NO[C@@](c3cc(Cl)c(F)c(Cl)c3)(C(F)(F)F)C2)ccc1C(=O)NC1CC(OC2CC2)=NO1 (stereo partly drawn) [Compound A078]
≥ 80%: mortality at 200 ppm (Tetranychus urticae) | mortality at 200 ppm (Myzus persicae) | percent effect (mortality or growth inhibition) at 200 ppm (Plutella xylostella) | percent control (mortality, anti-feedant effect or growth inhibition) at 200 ppm (Spodoptera littoralis) | percent effect (mortality or growth inhibition) at 200 ppm (Diabrotica Balteata) | mortality at 200 ppm (Thrips tabaci)

Cc1cc(C2=NO[C@@](c3cc(Cl)cc(Cl)c3)(C(F)(F)F)C2)ccc1C(=O)NC1CC(Br)=NO1 (stereo partly drawn) [Compound A055]
≥ 80%: mortality at 200 ppm (Tetranychus urticae) | mortality at 200 ppm (Myzus persicae) | percent effect (mortality or growth inhibition) at 200 ppm (Plutella xylostella) | percent control (mortality, anti-feedant effect or growth inhibition) at 200 ppm (Spodoptera littoralis) | percent effect (mortality or growth inhibition) at 200 ppm (Diabrotica Balteata) | mortality at 200 ppm (Thrips tabaci)

Cc1cc(C2=NO[C@@](c3cc(Cl)c(F)c(Cl)c3)(C(F)(F)F)C2)ccc1C(=O)NC1CC(COC=O)=NO1 (stereo partly drawn) [Compound A089]
≥ 80%: mortality at 200 ppm (Tetranychus urticae) | mortality at 200 ppm (Myzus persicae) | percent effect (mortality or growth inhibition) at 200 ppm (Plutella xylostella) | percent control (mortality, anti-feedant effect or growth inhibition) at 200 ppm (Spodoptera littoralis) | percent effect (mortality or growth inhibition) at 200 ppm (Diabrotica Balteata) | mortality at 200 ppm (Thrips tabaci)

Cc1cc(C2=NO[C@@](c3cc(Cl)c(Cl)c(Cl)c3)(C(F)(F)F)C2)ccc1C(=O)NC1CC(OCc2ccncc2)=NO1 (stereo partly drawn) [Compound A124, 2-methyl-N-[3-(4-pyridylmethoxy)-4,5-dihydroisoxazol-5-yl]-4-[(5S)-5-(3,4,5-trichlorophenyl)-5-(trifluoromethyl)-4H-isoxazol-3-yl]benzamide]
≥ 80%: mortality at 200 ppm (Tetranychus urticae) | mortality at 200 ppm (Myzus persicae) | percent effect (mortality or growth inhibition) at 200 ppm (Plutella xylostella) | percent control (mortality, anti-feedant effect or growth inhibition) at 200 ppm (Spodoptera littoralis) | percent effect (mortality or growth inhibition) at 200 ppm (Diabrotica Balteata) | mortality at 200 ppm (Thrips tabaci)

CC(=O)OCC1=NOC(NC(=O)c2ccc(C3=NO[C@@](c4cc(Cl)c(F)c(Cl)c4)(C(F)(F)F)C3)cc2C)C1 (stereo partly drawn) [Compound A069]
≥ 80%: mortality at 200 ppm (Tetranychus urticae) | mortality at 200 ppm (Myzus persicae) | percent effect (mortality or growth inhibition) at 200 ppm (Plutella xylostella) | percent control (mortality, anti-feedant effect or growth inhibition) at 200 ppm (Spodoptera littoralis) | percent effect (mortality or growth inhibition) at 200 ppm (Diabrotica Balteata) | mortality at 200 ppm (Thrips tabaci)

CC1=NOC(N(C=O)C(=O)c2ccc(C3=NO[C@@](c4cc(Cl)c(F)c(Cl)c4)(C(F)(F)F)C3)cc2Cl)C1 (stereo partly drawn) [Compound A033, 2-chloro-4-[(5S)-5-(3,5-dichloro-4-fluoro-phenyl)-5-(trifluoromethyl)-4H-isoxazol-3-yl]-N-formyl-N-(3-methyl-4,5-dihydroisoxazol-5-yl)benzamide]
≥ 80%: mortality at 200 ppm (Tetranychus urticae) | mortality at 200 ppm (Myzus persicae) | percent effect (mortality or growth inhibition) at 200 ppm (Plutella xylostella) | percent control (mortality, anti-feedant effect or growth inhibition) at 200 ppm (Spodoptera littoralis) | percent effect (mortality or growth inhibition) at 200 ppm (Diabrotica Balteata) | mortality at 200 ppm (Thrips tabaci)

Cc1cc(C2=NO[C@@](c3cc(Cl)c(F)c(Cl)c3)(C(F)(F)F)C2)ccc1C(=O)NC1CC(C=O)=NO1 (stereo partly drawn) [Compound A099]
≥ 80%: mortality at 200 ppm (Tetranychus urticae) | mortality at 200 ppm (Myzus persicae) | percent effect (mortality or growth inhibition) at 200 ppm (Plutella xylostella) | percent control (mortality, anti-feedant effect or growth inhibition) at 200 ppm (Spodoptera littoralis) | percent effect (mortality or growth inhibition) at 200 ppm (Diabrotica Balteata) | mortality at 200 ppm (Thrips tabaci)

Cc1cc(C2=NO[C@@](c3cc(Cl)cc(C(F)(F)F)c3)(C(F)(F)F)C2)ccc1C(=O)N(C=O)C1CC(Br)=NO1 (stereo partly drawn) [Compound A142, N-(3-bromo-4,5-dihydroisoxazol-5-yl)-4-[(5S)-5-[3-chloro-5-(trifluoromethyl)phenyl]-5-(trifluoromethyl)-4H-isoxazol-3-yl]-N-formyl-2-methyl-benzamide]
≥ 80%: mortality at 200 ppm (Tetranychus urticae) | mortality at 200 ppm (Myzus persicae) | percent effect (mortality or growth inhibition) at 200 ppm (Plutella xylostella) | percent control (mortality, anti-feedant effect or growth inhibition) at 200 ppm (Spodoptera littoralis) | percent effect (mortality or growth inhibition) at 200 ppm (Diabrotica Balteata) | mortality at 200 ppm (Thrips tabaci)

COC1=NO[C@H](NC(=O)c2ccc(C3=NO[C@@](c4cc(Cl)c(Cl)c(Cl)c4)(C(F)(F)F)C3)cc2C)C1 (single isomer, unassigned) [Compound A148]
≥ 80%: mortality at 200 ppm (Tetranychus urticae) | mortality at 200 ppm (Myzus persicae) | percent effect (mortality or growth inhibition) at 200 ppm (Plutella xylostella) | percent control (mortality, anti-feedant effect or growth inhibition) at 200 ppm (Spodoptera littoralis) | percent effect (mortality or growth inhibition) at 200 ppm (Diabrotica Balteata) | mortality at 200 ppm (Thrips tabaci)

Cc1cc(C2=NO[C@@](c3cc(Cl)cc(Cl)c3)(C(F)(F)F)C2)ccc1C(=O)N(C=O)C1CC(Br)=NO1 (stereo partly drawn) [Compound A056, N-(3-bromo-4,5-dihydroisoxazol-5-yl)-4-[(5S)-5-(3,5-dichlorophenyl)-5-(trifluoromethyl)-4H-isoxazol-3-yl]-N-formyl-2-methyl-benzamide]
≥ 80%: mortality at 200 ppm (Tetranychus urticae) | mortality at 200 ppm (Myzus persicae) | percent effect (mortality or growth inhibition) at 200 ppm (Plutella xylostella) | percent control (mortality, anti-feedant effect or growth inhibition) at 200 ppm (Spodoptera littoralis) | percent effect (mortality or growth inhibition) at 200 ppm (Diabrotica Balteata) | mortality at 200 ppm (Thrips tabaci)

Cc1cc(C2=NO[C@@](c3cc(Cl)cc(Cl)c3)(C(F)(F)F)C2)ccc1C(=O)N[C@@H]1CC(OCC(F)(F)F)=NO1 (single isomer, unassigned) [Compound A156]
≥ 80%: mortality at 200 ppm (Tetranychus urticae) | mortality at 200 ppm (Myzus persicae) | percent effect (mortality or growth inhibition) at 200 ppm (Plutella xylostella) | percent control (mortality, anti-feedant effect or growth inhibition) at 200 ppm (Spodoptera littoralis) | percent effect (mortality or growth inhibition) at 200 ppm (Diabrotica Balteata) | mortality at 200 ppm (Thrips tabaci)

CCCOC1=NOC(NC(=O)c2ccc(C3=NO[C@@](c4cc(Cl)c(F)c(Cl)c4)(C(F)(F)F)C3)cc2C)C1 (stereo partly drawn) [Compound A070]
≥ 80%: mortality at 200 ppm (Tetranychus urticae) | mortality at 200 ppm (Myzus persicae) | percent effect (mortality or growth inhibition) at 200 ppm (Plutella xylostella) | percent control (mortality, anti-feedant effect or growth inhibition) at 200 ppm (Spodoptera littoralis) | percent effect (mortality or growth inhibition) at 200 ppm (Diabrotica Balteata) | mortality at 200 ppm (Thrips tabaci)

Cc1cc(C2=NO[C@@](c3cc(Cl)c(Cl)c(Cl)c3)(C(F)(F)F)C2)ccc1C(=O)NC1CC(C#N)=NO1 (stereo partly drawn) [Compound A145, N-(3-cyano-4,5-dihydroisoxazol-5-yl)-2-methyl-4-[(5S)-5-(3,4,5-trichlorophenyl)-5-(trifluoromethyl)-4H-isoxazol-3-yl]benzamide]
≥ 80%: mortality at 200 ppm (Tetranychus urticae) | mortality at 200 ppm (Myzus persicae) | percent effect (mortality or growth inhibition) at 200 ppm (Plutella xylostella) | percent control (mortality, anti-feedant effect or growth inhibition) at 200 ppm (Spodoptera littoralis) | percent effect (mortality or growth inhibition) at 200 ppm (Diabrotica Balteata) | mortality at 200 ppm (Thrips tabaci)

Cc1cc(C2=NO[C@@](c3cc(Cl)c(F)c(Cl)c3)(C(F)(F)F)C2)ccc1C(=O)NC1CC(OC/C=C/C(F)(F)F)=NO1 (stereo partly drawn) [Compound A084, 4-[(5S)-5-(3,5-dichloro-4-fluoro-phenyl)-5-(trifluoromethyl)-4H-isoxazol-3-yl]-2-methyl-N-[3-[(E)-4,4,4-trifluorobut-2-enoxy]-4,5-dihydroisoxazol-5-yl]benzamide]
≥ 80%: mortality at 200 ppm (Tetranychus urticae) | mortality at 200 ppm (Myzus persicae) | percent effect (mortality or growth inhibition) at 200 ppm (Plutella xylostella) | percent control (mortality, anti-feedant effect or growth inhibition) at 200 ppm (Spodoptera littoralis) | percent effect (mortality or growth inhibition) at 200 ppm (Diabrotica Balteata) | mortality at 200 ppm (Thrips tabaci)

COC1=NOC(NC(=O)c2ccc(C3=NO[C@@](c4cccc(C(F)(F)F)c4)(C(F)(F)F)C3)cc2C)C1 (stereo partly drawn) [Compound A057]
≥ 80%: mortality at 200 ppm (Tetranychus urticae; application rate 200 ppm, bean leaf discs, mixed population (mobile stages), 8 days after infestation, read-out: mortality) | mortality at 200 ppm (Myzus persicae; application rate 200 ppm, sunflower leaf discs, population of mixed ages, 6 days after treatment, read-out: mortality) | percent effect (mortality or growth inhibition) at 200 ppm (Plutella xylostella; application rate 200 ppm, artificial diet, L2 larvae, 5 days after infestation) | percent control (mortality, anti-feedant effect or growth inhibition) at 200 ppm (Spodoptera littoralis; application rate 200 ppm, cotton leaf discs, L1 larvae, 3 days after infestation) | percent effect (mortality or growth inhibition) at 200 ppm (Diabrotica Balteata; application rate 200 ppm, maize sprouts, L2 larvae, 4 days after infestation) | mortality at 200 ppm (Thrips tabaci; application rate 200 ppm, sunflower leaf discs, population of mixed ages, 6 days after infestation, read-out: mortality)

CC1=NOC(NC(=O)c2ccc(C3=NO[C@@](c4cc(Cl)c(F)c(Cl)c4)(C(F)(F)F)C3)cc2C)C1 (stereo partly drawn) [Compound A009, 4-[(5S)-5-(3,5-dichloro-4-fluoro-phenyl)-5-(trifluoromethyl)-4H-isoxazol-3-yl]-2-methyl-N-(3-methyl-4,5-dihydroisoxazol-5-yl)benzamide]
≥ 80%: mortality at 200 ppm (Tetranychus urticae) | mortality at 200 ppm (Myzus persicae) | percent effect (mortality or growth inhibition) at 200 ppm (Plutella xylostella) | percent control (mortality, anti-feedant effect or growth inhibition) at 200 ppm (Spodoptera littoralis) | percent effect (mortality or growth inhibition) at 200 ppm (Diabrotica Balteata) | mortality at 200 ppm (Thrips tabaci)
